Laboratory results reported in ChEMBL document CHEMBL5308541, “MAIP: An Open-Source Tool to Enrich High-Throughput Screening Output and Identify Novel, Druglike Molecules with Antimalarial Activity” (ACS Med Chem Lett, 2023).

Assays:
Plasmodium falciparum [1] = experiment: Hit confirmation in dose-response curve in Dd2 pLDH assay, at 72h; format: functional, organism-based, Erythrocyte; parameters: timepoint 72 hour; conditions: Plasmodium falciparum, Dd2, Erythrocyte, 72 h
Plasmodium falciparum [2] = experiment: Hit confirmation in dose-response curve in NF54 nanoGlo assay, at 12h; format: functional, organism-based, Erythrocyte; parameters: timepoint 12 hour; conditions: Plasmodium falciparum, NF54, Erythrocyte, 12 h
Plasmodium falciparum [3] = experiment: Hit confirmation in dose-response curve in NF54 pLDH assay, at 72h; format: functional, organism-based, Erythrocyte; parameters: timepoint 72 hour; conditions: Plasmodium falciparum, NF54, Erythrocyte, 72 h
[4] = Hit confirmation in dose-response curve in HepG2 cytotoxicity assay, at 72h; format: toxicity, cell-based, Homo sapiens; parameters: timepoint 72 hour; conditions: human, HepG2 cells
Plasmodium falciparum [5] = experiment: Hit confirmation in dose-response curve in NF54 nanoGlo assay, at 72h; format: functional, organism-based, Erythrocyte; parameters: timepoint 72 hour; conditions: Plasmodium falciparum, NF54, Erythrocyte, 72 h

| Structure (SMILES) | IC50 (Plasmodium falciparum [1]) | IC50 (Plasmodium falciparum [2]) | IC50 (Plasmodium falciparum [3]) | IC50 (Plasmodium falciparum [5]) | IC50 at 72 h [4] |
| --- | --- | --- | --- | --- | --- |
| Cc1ccc(CNc2ncnc(N)c2Cl)c(N2CCCC2)n1 | > 10 µM | 1.07 µM | > 10 µM | 2.45 µM | > 10 µM |
| Oc1cccc2c1CCC[C@@H]2NCc1ccc2occc2c1 | 8.51 µM | 4.57 µM | 9.33 µM | 4.07 µM | > 10 µM |
| O=C(NCc1ccc(OC(F)(F)F)cc1)N(CCN1CCCC1)[C@H]1CCCNC1 | 4.47 µM | > 10 µM | 5.37 µM | 4.57 µM | > 10 µM |
| CN1C(C)(C)CC(NC(=O)c2ccc(-c3cc(-c4cccc(C(F)(F)F)c4)n[nH]3)cc2)CC1(C)C | 7.94 µM | 8.51 µM | 9.33 µM | 3.63 µM | > 10 µM |
| CCN1CCN(c2ccc(CNCc3cccc(O)c3)cc2F)CC1 | 3.89 µM | 8.91 µM | 3.39 µM | 1.95 µM | > 10 µM |
| NCCCCc1c(-c2cccnc2)[nH]c2c(Cl)cc(Cl)cc12 | 4.07 µM | 6.92 µM | 4.47 µM | 4.47 µM | 9.55 µM |
| COc1ccc(-c2cc(C(=O)Nc3ccc(N4CCN5CCCC5C4)cc3)c3c(C)noc3n2)cc1 (stereo not given) | 5.75 µM | 6.46 µM | 7.59 µM | 4.27 µM | > 10 µM |
| COc1ccc2cc(NC(=O)c3cc(-c4c(C)nn(C)c4C)[nH]n3)cnc2c1 | 7.08 µM | 4.9 µM | 7.24 µM | 2.51 µM | > 10 µM |
| Cc1ccc(-c2nnc(Nc3ccccc3)c3ccccc23)cc1CN1C(=O)c2ccccc2C1=O | 9.33 µM | > 10 µM | > 10 µM | 3.8 µM | > 10 µM |
| O=C1C2CCCCC2C(c2c(-c3ccccc3)[nH]c3ccccc23)N1Cc1ccccc1 (stereo not given) | > 10 µM | > 10 µM | > 10 µM | > 10 µM | > 10 µM |
| Fc1ccc(N2CC[C@H](CN3CCC(c4c[nH]c5ccccc45)(c4c[nH]c5ccccc45)CC3)C2)cc1 | 4.27 µM | 2.51 µM | 6.61 µM | 1.91 µM | > 10 µM |
| O=C(NCC1CC1)c1cc2c(OCc3ccc(Cl)cc3)cccc2[nH]1 | 6.46 µM | > 10 µM | 10.2 µM | 3.89 µM | > 10 µM |

The remaining compounds from weak to strong by IC50 (Plasmodium falciparum [1]), led by results:

| IC50 (Plasmodium falciparum [1]) | IC50 (Plasmodium falciparum [2]) | IC50 (Plasmodium falciparum [3]) | IC50 (Plasmodium falciparum [5]) | Structure (SMILES) | IC50 at 72 h [4] |
| --- | --- | --- | --- | --- | --- |
| 3.89 µM | 9.33 µM | 5.89 µM | 4.27 µM | CN1CCC(N2CCC(NC(=O)c3ccc(S(=O)(=O)N(C)C4CCCCC4)cc3)CC2)CC1 | > 10 µM |
| 3.8 µM | > 10 µM | 4.27 µM | 4.17 µM | CN1CCN(CCNC2CCN3CCCC3C2)C(c2ccccc2)C1 (stereo not given) | > 10 µM |
| 2.69 µM | 4.68 µM | 2.69 µM | 1.78 µM | N#Cc1ccc(N2C[C@H](COCC3CC3)C3(CCN(Cc4cccc(O)c4)CC3)C2)cc1C(F)(F)F | > 10 µM |
| 2.4 µM | > 10 µM | 1.41 µM | 0.912 µM | COc1ccc2nc3cc(Cl)ccc3c(O)c2c1 | > 10 µM |
| 2 µM | 3.55 µM | 2.45 µM | 1.95 µM | CCOc1ccc2nc(CN(CC)CC3CCN(C4CCN(C)CC4)CC3)ccc2c1 | > 10 µM |
| 1.45 µM | 1.82 µM | 1.51 µM | 1.38 µM | COCCN1CC[C@H](CN(C)c2ccnc3cc(Cl)ccc23)C1 | > 10 µM |
| 0.955 µM | 3.09 µM | 1.29 µM | 0.603 µM | COC(=O)c1cn(CCNc2ccnc3cc(Cl)ccc23)cc2c(O)nnc1-2 | > 10 µM |
| 0.741 µM | 3.63 µM | 0.977 µM | 0.708 µM | Cc1ccccc1CN1CCC(CNc2c3c(nc4ccccc24)CCC3)CC1 | 5.25 µM |
